Experimental data taken from patent publication US7196105B2, “Treatment of human multiple myeloma by curcumin” (Research Development Foundation, priority 2002, dated 2007).

Legend:
[1] = test system: multiple myeloma cell lines MM.1S, RPMI-8226 and U266; settings: 50 μM PS-1145; cited from earlier work
[2] = test system: U266 cells; assay: Cytotoxic effect of vincristine with or without curcumin (MTT); type: cell-based, human; settings: vincristine 50 μM alone, 24 h
Description: The antiproliferative effects of curcumin against different multiple myeloma cell lines were determined by the MTT dye uptake method as described earlier (Manna et al., 1998). Briefly, cells (5000/well) were incubated in triplicate in a 96-well plate in the presence or absence of indicated test samples in a final volume of 0.1 ml for 24 h at 37° C. Thereafter, 0.025 ml of MTT solution (5 mg/ml in PBS) was added to each well. After a 2 h incubation at 37 ° C., 0.1 ml of extraction buffer (20% SDS, 50% dimethylformamide) was added. Incubation was continued for overnight at 37 ° C., and then the OD at 590 nm was measured using a 96-well multiscanner autoreader (Dynatech MR 5000), with extraction buffer as blank. Percent cell viability=(OD of the experiment samples/OD of the control)×100.

[3] = test system: p65 subunit of NF-κB; assay: Immunocytochemistry for NF-κB p65 localization in multiple myeloma cell lines; type: cell-based, human; settings: U266 cells, NBD-peptide 100 μM, 12 h
Description: Red stain indicates the localization of p65 and blue stain (Hoechst) indicates nucleus (magnification 200×). […] U266 cells (2×10^6 cells/ml) were treated with indicated concentrations of NEMO-control or NBD-peptide (100 μM) for the indicated times. Nuclear extracts were then checked for the presence of NF-κB DNA-binding activity by EMSA. […] Untreated or NBD-peptide-treated (100 μM; 12 h) U266 cells were cytospun, and p65 immunocytochemistry was performed as described. Red stain indicates the localization of p65 and blue stain indicates nucleus (magnification 200×). […] U266 cells (2×10^6 cells/ml) were treated with indicated concentrations of NEMO-control or NBD-peptide (100 μM) for the indicated time periods, and cell viability was monitored by the trypan blue dye exclusion method. Percent cell killing was determined as: (number of trypan blue stained cells/total cells)×100. […] Stained slides were mounted with mounting medium (Sigma Colo.) and analyzed under an epifluorescence microscope (Labophot-2, Nikon, Tokyo, Japan). […] Cells with nuclear staining of NF-κB p65 or STAT3 were counted separately. One hundred cells were counted for each specimen, and the sample was graded on the basis of a 4-point scale: −, no nuclear positive cells (0%); +, low number of nuclear positive cells (<10%); ++, moderate number of nuclear positive cells (10–50%); +++, high number of nuclear positive cells (>50%).

[4] = test system: U266 cells; assay: Cell viability by trypan blue dye exclusion after NBD peptide treatment; type: cell-based, human; settings: NBD peptide 100 μM, 24 h
Description: FIG. 8A: U266 cells (2×10^6 cells/ml) were treated with indicated concentrations of NEMO-control or NBD-peptide (100 μM) for the indicated times. Nuclear extracts were then checked for the presence of NF-κB DNA-binding activity by EMSA. FIG. 8B: Untreated or NBD-peptide-treated (100 μM; 12 h) U266 cells were cytospun, and p65 immunocytochemistry was performed as described. Red stain indicates the localization of p65 and blue stain indicates nucleus (magnification 200×). FIG. 8C: U266 cells (2×10^6 cells/ml) were treated with indicated concentrations of NEMO-control or NBD-peptide (100 μM) for the indicated time periods, and cell viability was monitored by the trypan blue dye exclusion method. Percent cell killing was determined as: (number of trypan blue stained cells/total cells)×100.

In the case of `O=C(Nc1cc(Cl)cc2c1[nH]c1cnccc12)c1cccnc1` [PS-1145], the inhibition of proliferation [1] is given as “less than 50%”.
In the case of `CC[C@]1(O)C[C@H]2CN(CCc3c([nH]c4ccccc34)[C@@](C(=O)OC)(c3cc4c(cc3OC)N(C=O)[C@H]3[C@@](O)(C(=O)OC)[C@H](OC(C)=O)[C@]5(CC)C=CCN6CC[C@]43[C@@H]65)C2)C1` [vincristine, reference compound], the “killing of U266 cells” value [2] is reported as “minimally effective”.
For “NH2-DRQIKIWFQNRRMKWKKTALDWSWLQTE-CONH2 (H-DRQIKIWFQNRRMKWKKTALDWSWLQTE-NH2) [NBD peptide, reference compound]”, the “nuclear pool of the p65 subunit of NF-κB” value [3] was “decrease in the nuclear pool of the p65 subunit of NF-κB” and the “suppression of cell growth” value [4] was “Approximately 32%”.
